Patent US10294229B2, “Heteroaryl substituted aminopyridine compounds” (BRISTOL-MYERS SQUIBB COMPANY, priority 2015, dated 2019)

Molecular target: IRAK4 (Homo sapiens (Human), UniProt Q9NWZ3)
Assay: IRAK4 Inhibition Assay
Assay type: biochemical
Settings: ATP 500 μM; IRAK4 0.6 nM
Experimental: The assays were performed in U-bottom 384-well plates. The final assay volume was 30 μL prepared from 15 μL additions of enzyme and substrates (fluoresceinated peptide and ATP) and test compounds in assay buffer (20 mM HEPES pH 7.2, 10 mM MgCl2, 0.015% Brij 35 and 4 mM DTT). The reaction was initiated by the combination of IRAK4 with substrates and test compounds. The reaction mixture was incubated at room temperature for 60 min. and terminated by adding 45 μL of 35 mM EDTA to each sample. The reaction mixture was analyzed on the Caliper LABCHIP® 3000 (Caliper, Hopkinton, Mass.) by electrophoretic separation of the fluorescent substrate and phosphorylated product. Inhibition data were calculated by comparison to no enzyme control reactions for 100% inhibition and vehicle-only reactions for 0% inhibition. The final concentrations of reagents in the assays are ATP, 500 μM; FL-IPTSPITTTYFFFKKK peptide 1.5 μM; IRAK4, 0.6 nM; and DMSO, 1.6%.

IRAK4, sequence (Q9NWZ3 whole entry, species assumed): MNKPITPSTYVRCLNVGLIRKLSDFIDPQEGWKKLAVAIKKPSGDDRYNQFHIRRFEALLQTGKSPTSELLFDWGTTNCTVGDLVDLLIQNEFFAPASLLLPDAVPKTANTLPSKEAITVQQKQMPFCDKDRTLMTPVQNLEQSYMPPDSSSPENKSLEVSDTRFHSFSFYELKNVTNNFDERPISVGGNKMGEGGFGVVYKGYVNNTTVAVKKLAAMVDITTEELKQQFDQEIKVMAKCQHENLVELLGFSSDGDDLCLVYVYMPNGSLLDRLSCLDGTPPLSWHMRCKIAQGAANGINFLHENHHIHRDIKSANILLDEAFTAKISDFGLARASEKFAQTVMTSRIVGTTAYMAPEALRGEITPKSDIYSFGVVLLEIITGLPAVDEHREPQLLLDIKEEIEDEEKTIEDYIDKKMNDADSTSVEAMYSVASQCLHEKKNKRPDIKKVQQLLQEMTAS

| SMILES | IC50 [nM] |
| --- | --- |
| CC(C)Nc1cc(-n2ncc3cc(C#N)cnc32)ncc1-c1cn(-c2cccnc2)nn1 [Example 174, 1-(4-(isopropylamino)-5-(1-(pyridin-3-yl)-1H-1,2,3-triazol-4-yl)pyridin-2-yl)-1H-pyrazolo[3,4-b]pyridine-5-carbonitrile] | 17 |
| CC(C)Nc1cc(-n2ncc3cc(C#N)cnc32)ncc1-c1cn(C2CNC2)nn1 [Example 138, 1-(5-(1-(azetidin-3-yl)-1H-1,2,3-triazol-4-yl)-4-(isopropylamino)pyridin-2-yl)-1H-pyrazolo[3,4-b]pyridine-5-carbonitrile] | 25 |
| CCC(C)(O)Cn1cc(-c2cnc(-n3cnc4cc(C#N)cnc43)cc2NC(C)C)nn1 (single isomer, unassigned) [Example 94, 3-(5-(1-(2-hydroxy-2-methylbutyl)-1H-1,2,3-triazol-4-yl)-4-(isopropylamino)pyridin-2-yl)-3H-imidazo[4,5-b]pyridine-6-carbonitrile] | 21 |
| CC(C)Nc1cc(-n2ncc3cc(C#N)cnc32)ncc1-c1cn(C(C)(C)C)nn1 [Example 18, 1-(5-(1-(tert-butyl)-1H-1,2,3-triazol-4-yl)-4-(isopropylamino)pyridin-2-yl)-1H-pyrazolo[3,4-b]pyridine-5-carbonitrile] | 17 |
| CC(C)Nc1cc(-n2ncc3cc(C#N)cnc32)ncc1-c1cn(CC(=O)N2CCN(S(C)(=O)=O)CC2)nn1 [Example 193, 1-(4-(isopropylamino)-5-(1-(2-(4-(methylsulfonyl)piperazin-1-yl)-2-oxoethyl)-1H-1,2,3-triazol-4-yl)pyridin-2-yl)-1H-pyrazolo[3,4-b]pyridine-5-carbonitrile] | 4 |
| CC(C)Nc1cc(-n2ncc3cc(C#N)cnc32)ncc1-c1cn(CC(N)=O)cn1 [Example 237, 2-(4-(6-(5-cyano-1H-pyrazolo[3,4-b]pyridin-1-yl)-4-(isopropylamino)pyridin-3-yl)-1H-imidazol-1-yl) acetamide] | 37 |
| CC(C)Nc1cc(-n2ncc3cc(C#N)cnc32)ncc1-n1cc(CCO)cn1 [Example 242, 1-(5-(4-(2-hydroxyethyl)-1H-pyrazol-1-yl)-4-(isopropylamino)pyridin-2-yl)-1H-pyrazolo[3,4-b]pyridine-5-carbonitrile] | 47 |
| CC(C)CCn1cc(-c2cnc(-n3ncc4cc(Cl)cnc43)cc2NC(C)C)nn1 [Example 217, 2-(5-chloro-1H-pyrazolo [3,4-b]pyridin-1-yl)-5-(1-isopentyl-1H-1,2,3-triazol-4-yl)-N-isopropylpyridin-4-amine] | 6 |

The next lines start with the values.

| IC50 [nM] | SMILES |
| --- | --- |
| 61 | CC(C)Nc1cc(-n2ncc3cc(C#N)cnc32)ncc1-n1cc(C(C)C)cn1 [Example 244, 1-(5-(4-isopropyl-1H-pyrazol-1-yl)-4-(isopropylamino)pyridin-2-yl)-1H-pyrazolo[3,4-b]pyridine-5-carbonitrile] |
| 60 | CC(C)Nc1cc(-n2ncc3cc(C#N)cnc32)ncc1-n1cc(-c2cncn2C)nn1 [Example 317, 1-(4-(isopropylamino)-5-(4-(1-methyl-1H-imidazol-5-yl)-1H-1,2,3-triazol-1-yl)pyridin-2-yl)-1H-pyrazolo[3,4-b]pyridine-5-carbonitrile] |
| 39 | CCC(C)(O)c1cn(-c2cnc(-n3ncc4cc(C#N)cnc43)cc2NC(C)C)nn1 (stereo not shown) [Example 322, 1-(5-(4-(2-hydroxybutan-2-yl)-1H-1,2,3-triazol-1-yl)-4-(isopropylamino)pyridin-2-yl)-1H-pyrazolo[3,4-b]pyridine-5-carbonitrile] |
| 23 | CC(O)Cc1cn(-c2cnc(-n3ncc4cc(C#N)cnc43)cc2NC2CC2)nn1 (single isomer, unassigned) [Example 274, 1-(4-(cyclopropylamino)-5-(4-(2-hydroxypropyl)-1H-1,2,3-triazol-1-yl)pyridin-2-yl)-1H-pyrazolo[3,4-b]pyridine-5-carbonitrile] |
| 66 | CC(C)Nc1cc(-n2ncc3cc(C#N)cnc32)ncc1-n1ccc(C#N)n1 [Example 248, 1-(5-(3-cyano-1H-pyrazol-1-yl)-4-(isopropylamino)pyridin-2-yl)-1H-pyrazolo[3,4-b]pyridine-5-carbonitrile] |
